Results on six compounds are retold here after ChEMBL document CHEMBL5465560, “Selectivity Literature for EUbOPEN Chemogenomic Library” (2024).

Experiment [1] has as its target Ephrin type-A receptor 2 (Homo sapiens) (UniProt P29317). Put plainly: Selectivity interaction (Ambit KINOMEscan and KiNATiv profiling in Jurkat cells) EUB0000090b EPHA2. The settings on record: at 1 µM. It counts as cell-based.
The target of experiment [2] is Cyclin-dependent kinase 5 (Homo sapiens, UniProt Q00535). Put plainly: Selectivity interaction (KinomeScan (DiscoverX)) EUB0000666a CDK5. The settings on record: at 10 µM.
The target in experiment [3] is T1, SNF-related serine/threonine-protein kinase (Homo sapiens) (UniProt Q9NRH2).
T1 sequence (whole entry): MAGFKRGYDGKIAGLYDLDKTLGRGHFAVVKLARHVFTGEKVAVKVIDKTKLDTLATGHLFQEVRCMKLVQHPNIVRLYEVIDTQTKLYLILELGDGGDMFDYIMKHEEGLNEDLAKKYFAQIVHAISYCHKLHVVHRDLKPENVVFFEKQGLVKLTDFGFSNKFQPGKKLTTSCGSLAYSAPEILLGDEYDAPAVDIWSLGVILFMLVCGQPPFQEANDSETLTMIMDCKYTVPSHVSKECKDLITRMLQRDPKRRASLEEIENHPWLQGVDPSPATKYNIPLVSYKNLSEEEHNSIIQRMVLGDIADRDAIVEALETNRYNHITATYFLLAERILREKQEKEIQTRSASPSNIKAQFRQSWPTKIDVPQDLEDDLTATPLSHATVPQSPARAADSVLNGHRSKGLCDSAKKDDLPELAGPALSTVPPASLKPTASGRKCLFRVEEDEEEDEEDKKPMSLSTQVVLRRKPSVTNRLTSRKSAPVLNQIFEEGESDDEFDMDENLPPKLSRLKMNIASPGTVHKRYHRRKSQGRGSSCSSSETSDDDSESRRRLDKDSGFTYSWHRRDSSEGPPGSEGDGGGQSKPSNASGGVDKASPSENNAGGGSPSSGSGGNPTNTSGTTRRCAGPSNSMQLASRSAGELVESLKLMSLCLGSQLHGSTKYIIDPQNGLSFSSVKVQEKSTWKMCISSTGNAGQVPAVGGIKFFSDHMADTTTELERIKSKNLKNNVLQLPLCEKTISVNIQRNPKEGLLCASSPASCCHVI
Put plainly: Selectivity interaction (KinomeScan (DiscoverX)) EUB0000666a SNRK. The conditions noted are these: at 10 µM.

For experiment [4], the target named is T2, Serine/threonine-protein kinase Nek9 (Homo sapiens) (UniProt Q8TD19).
T2 sequence (whole entry): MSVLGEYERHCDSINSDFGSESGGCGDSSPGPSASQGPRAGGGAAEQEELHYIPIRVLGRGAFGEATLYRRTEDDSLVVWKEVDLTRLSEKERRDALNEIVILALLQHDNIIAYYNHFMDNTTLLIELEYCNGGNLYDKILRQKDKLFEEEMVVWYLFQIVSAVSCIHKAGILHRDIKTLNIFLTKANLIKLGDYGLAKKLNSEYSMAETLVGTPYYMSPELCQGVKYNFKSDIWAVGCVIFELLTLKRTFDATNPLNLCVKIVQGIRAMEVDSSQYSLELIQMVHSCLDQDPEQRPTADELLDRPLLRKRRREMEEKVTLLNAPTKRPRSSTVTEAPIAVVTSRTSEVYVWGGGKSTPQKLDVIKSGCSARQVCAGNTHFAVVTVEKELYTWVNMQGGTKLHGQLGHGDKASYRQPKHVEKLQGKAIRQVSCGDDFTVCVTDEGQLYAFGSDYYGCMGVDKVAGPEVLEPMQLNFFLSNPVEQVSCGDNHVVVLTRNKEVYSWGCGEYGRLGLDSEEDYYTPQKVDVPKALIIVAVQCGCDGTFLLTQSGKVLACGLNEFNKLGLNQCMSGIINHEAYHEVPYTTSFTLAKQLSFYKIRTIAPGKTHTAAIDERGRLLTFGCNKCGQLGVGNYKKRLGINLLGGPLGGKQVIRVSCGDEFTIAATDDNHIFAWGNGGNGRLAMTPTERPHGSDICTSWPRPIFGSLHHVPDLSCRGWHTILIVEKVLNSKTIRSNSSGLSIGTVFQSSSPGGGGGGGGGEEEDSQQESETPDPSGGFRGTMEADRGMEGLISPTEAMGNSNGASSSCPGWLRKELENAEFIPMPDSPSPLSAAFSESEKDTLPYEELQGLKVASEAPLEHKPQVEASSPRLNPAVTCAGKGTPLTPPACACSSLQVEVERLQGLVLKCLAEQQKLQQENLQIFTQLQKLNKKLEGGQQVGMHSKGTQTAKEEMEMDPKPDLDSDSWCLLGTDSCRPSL
Nature of the experiment: Selectivity interaction (KinomeScan (DiscoverX)) EUB0000229b NEK9. The conditions noted are these: at 10 µM.

Experiment [5] deals with Interferon-induced, double-stranded RNA-activated protein kinase (Homo sapiens) (UniProt P19525). Put plainly: Selectivity interaction (ActivX KiNativ screen (kinase selectivity in THP-1 cell lysates)) EUB0000639a EIF2AK2. The settings on record: lysate. It counts as subcellular.
Experiment [6] addresses Tyrosine-protein kinase BTK (Homo sapiens, UniProt Q06187). Put plainly: Selectivity interaction (ActivX KiNativ screen (kinase selectivity in THP-1 cell lysates)) EUB0000639a BTK. The conditions noted are these: lysate, at 5 µM. It counts as subcellular.
Experiment [7] addresses Homeodomain-interacting protein kinase 3 (Homo sapiens, UniProt Q9H422). Nature of the experiment: Selectivity interaction (KinomeScan (DiscoverX)) EUB0000045b HIPK3.
For experiment [8], the target named is T3, Serine/threonine-protein kinase Sgk3 (Homo sapiens) (UniProt Q96BR1).
T3 sequence (whole entry): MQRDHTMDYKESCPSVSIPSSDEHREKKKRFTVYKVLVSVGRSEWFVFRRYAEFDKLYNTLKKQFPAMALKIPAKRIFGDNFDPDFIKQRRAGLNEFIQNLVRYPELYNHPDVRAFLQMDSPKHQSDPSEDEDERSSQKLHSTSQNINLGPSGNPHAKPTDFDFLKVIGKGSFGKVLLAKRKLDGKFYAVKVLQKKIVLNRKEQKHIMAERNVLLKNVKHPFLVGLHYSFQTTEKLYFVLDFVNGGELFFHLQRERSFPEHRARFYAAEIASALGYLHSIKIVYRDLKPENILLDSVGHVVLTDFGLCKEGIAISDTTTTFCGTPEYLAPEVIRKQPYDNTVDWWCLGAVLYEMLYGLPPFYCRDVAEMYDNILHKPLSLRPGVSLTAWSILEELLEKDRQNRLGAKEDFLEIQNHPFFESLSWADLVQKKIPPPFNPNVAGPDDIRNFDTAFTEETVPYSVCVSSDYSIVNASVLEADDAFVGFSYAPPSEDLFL
Put plainly: Selectivity interaction (KinomeScan (DiscoverX)) EUB0000618a SGK3. The conditions noted are these: at 10 µM.

For experiment [9], the target named is Casein kinase I isoform epsilon (Homo sapiens, UniProt P49674). Put plainly: Selectivity interaction (KinomeScan (DiscoverX)) EUB0000618a CSNK1E. The settings on record: at 10 µM.

SMILES strings stand for the structures.

Sequence of Interferon-induced, double-stranded RNA-activated protein kinase (Homo sapiens) (P19525 whole entry): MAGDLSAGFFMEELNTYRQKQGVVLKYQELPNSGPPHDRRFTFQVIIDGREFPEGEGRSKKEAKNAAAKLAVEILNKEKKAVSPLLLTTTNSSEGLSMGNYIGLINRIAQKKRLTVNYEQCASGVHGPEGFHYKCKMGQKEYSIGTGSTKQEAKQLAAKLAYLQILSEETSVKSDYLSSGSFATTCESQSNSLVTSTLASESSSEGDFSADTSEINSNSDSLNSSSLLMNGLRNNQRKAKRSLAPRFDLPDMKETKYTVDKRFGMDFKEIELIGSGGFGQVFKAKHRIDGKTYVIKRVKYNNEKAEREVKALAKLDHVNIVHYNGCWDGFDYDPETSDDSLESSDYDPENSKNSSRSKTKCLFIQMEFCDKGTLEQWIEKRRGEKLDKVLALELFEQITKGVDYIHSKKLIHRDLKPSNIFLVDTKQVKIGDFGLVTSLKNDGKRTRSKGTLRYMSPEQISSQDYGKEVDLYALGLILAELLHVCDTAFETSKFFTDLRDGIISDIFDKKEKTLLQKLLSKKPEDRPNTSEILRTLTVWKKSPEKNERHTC
Sequence of Homeodomain-interacting protein kinase 3 (Q9H422 whole entry, looked up): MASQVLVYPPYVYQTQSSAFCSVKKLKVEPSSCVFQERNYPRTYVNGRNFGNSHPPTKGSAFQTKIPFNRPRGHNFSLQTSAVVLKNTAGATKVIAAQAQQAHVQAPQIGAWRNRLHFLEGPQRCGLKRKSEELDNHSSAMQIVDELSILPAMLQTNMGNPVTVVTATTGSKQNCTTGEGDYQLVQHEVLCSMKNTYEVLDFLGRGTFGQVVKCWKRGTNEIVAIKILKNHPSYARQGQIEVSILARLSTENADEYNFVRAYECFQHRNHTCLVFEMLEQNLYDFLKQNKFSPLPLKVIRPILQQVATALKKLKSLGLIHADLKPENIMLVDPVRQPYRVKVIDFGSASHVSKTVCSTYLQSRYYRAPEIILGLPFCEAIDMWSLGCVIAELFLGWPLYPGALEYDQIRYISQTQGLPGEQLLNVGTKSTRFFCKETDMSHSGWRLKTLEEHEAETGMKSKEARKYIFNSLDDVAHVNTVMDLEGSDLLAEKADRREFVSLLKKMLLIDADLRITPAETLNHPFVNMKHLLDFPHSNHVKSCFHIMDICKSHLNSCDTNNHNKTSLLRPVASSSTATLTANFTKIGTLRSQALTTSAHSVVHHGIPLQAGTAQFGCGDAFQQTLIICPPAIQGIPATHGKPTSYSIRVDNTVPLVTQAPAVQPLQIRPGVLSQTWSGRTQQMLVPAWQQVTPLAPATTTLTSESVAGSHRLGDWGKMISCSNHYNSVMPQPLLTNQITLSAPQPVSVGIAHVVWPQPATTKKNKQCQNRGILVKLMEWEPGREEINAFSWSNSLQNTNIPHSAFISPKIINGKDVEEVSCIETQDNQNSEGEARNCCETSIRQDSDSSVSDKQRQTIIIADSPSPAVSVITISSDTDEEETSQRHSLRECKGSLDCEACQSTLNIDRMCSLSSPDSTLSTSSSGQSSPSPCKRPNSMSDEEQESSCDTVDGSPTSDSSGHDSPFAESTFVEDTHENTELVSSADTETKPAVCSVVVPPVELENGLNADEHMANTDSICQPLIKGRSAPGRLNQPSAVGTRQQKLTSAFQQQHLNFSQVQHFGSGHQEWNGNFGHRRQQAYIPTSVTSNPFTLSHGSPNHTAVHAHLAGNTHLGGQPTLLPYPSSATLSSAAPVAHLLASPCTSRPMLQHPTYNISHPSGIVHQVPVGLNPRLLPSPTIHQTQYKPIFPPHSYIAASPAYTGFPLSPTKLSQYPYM
Sequence of Ephrin type-A receptor 2 (Homo sapiens) (P29317 whole entry): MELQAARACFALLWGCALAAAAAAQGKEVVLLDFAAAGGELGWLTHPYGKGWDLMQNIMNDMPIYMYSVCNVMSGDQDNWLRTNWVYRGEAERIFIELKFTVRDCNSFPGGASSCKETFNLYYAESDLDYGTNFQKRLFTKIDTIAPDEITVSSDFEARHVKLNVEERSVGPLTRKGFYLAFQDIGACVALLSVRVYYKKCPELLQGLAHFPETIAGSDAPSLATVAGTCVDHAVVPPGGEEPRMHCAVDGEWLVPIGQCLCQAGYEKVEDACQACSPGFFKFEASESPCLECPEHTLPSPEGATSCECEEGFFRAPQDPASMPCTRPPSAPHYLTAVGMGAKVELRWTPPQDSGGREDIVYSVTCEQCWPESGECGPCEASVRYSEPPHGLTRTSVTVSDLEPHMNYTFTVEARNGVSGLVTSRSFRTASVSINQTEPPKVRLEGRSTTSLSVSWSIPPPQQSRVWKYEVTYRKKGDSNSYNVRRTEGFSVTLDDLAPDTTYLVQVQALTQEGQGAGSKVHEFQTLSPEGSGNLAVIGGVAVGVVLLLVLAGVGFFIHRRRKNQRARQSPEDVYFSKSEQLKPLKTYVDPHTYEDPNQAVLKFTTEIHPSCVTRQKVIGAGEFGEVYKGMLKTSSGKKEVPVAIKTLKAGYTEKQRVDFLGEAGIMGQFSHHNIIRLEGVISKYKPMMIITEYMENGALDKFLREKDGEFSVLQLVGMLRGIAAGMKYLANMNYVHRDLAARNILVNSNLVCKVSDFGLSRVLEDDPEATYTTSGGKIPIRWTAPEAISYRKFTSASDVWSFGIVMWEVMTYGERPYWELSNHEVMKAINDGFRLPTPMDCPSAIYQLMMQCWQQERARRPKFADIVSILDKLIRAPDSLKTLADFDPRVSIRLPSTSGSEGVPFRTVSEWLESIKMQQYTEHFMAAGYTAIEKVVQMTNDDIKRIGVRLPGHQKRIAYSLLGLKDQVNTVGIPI
Sequence of Cyclin-dependent kinase 5 (Q00535 whole entry, looked up): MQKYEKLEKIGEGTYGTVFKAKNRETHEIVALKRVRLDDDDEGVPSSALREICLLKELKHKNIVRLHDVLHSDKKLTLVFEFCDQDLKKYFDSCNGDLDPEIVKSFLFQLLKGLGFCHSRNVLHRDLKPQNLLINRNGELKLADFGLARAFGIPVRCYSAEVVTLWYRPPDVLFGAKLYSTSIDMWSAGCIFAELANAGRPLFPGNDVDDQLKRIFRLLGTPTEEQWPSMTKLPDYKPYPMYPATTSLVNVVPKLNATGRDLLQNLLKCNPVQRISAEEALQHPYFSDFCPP
Sequence of Casein kinase I isoform epsilon (P49674 whole entry, looked up, canonical isoform): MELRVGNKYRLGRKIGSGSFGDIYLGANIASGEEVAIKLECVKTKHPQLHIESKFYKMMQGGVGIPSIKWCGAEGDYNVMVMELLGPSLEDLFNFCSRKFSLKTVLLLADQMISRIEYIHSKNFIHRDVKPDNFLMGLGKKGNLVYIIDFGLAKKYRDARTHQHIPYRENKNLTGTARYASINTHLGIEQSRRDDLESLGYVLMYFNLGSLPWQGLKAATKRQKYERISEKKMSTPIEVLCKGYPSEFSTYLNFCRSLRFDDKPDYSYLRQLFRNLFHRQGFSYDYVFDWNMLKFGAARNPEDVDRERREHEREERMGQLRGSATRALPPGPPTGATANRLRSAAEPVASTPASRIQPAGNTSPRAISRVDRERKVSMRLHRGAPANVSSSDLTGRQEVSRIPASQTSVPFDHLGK
Sequence of Tyrosine-protein kinase BTK (Q06187 whole entry): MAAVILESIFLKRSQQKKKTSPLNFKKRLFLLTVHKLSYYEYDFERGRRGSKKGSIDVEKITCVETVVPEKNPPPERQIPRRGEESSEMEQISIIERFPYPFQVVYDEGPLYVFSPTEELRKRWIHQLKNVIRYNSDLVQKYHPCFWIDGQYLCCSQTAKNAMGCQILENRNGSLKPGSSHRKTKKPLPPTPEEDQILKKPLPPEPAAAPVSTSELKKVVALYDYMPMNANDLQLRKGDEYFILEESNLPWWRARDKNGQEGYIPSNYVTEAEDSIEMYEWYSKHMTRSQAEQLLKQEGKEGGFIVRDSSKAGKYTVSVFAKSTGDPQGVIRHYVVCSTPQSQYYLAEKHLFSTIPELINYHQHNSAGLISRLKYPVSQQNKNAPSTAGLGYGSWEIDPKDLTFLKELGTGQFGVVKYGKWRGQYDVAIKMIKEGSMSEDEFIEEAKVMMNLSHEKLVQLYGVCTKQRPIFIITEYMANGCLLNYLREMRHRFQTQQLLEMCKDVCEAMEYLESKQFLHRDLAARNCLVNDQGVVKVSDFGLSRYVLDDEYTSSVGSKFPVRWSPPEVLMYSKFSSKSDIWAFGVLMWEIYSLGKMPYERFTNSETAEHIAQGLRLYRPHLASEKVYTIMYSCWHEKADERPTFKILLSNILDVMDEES

As for `CN(C)C/C=C/C(=O)Nc1ccc(C(=O)N2CCCC(Nc3ncc(Cl)c(-c4c[nH]c5ccccc45)n3)C2)cc1` (centres undefined), the % of control in experiment [1] was 98%.
For `O=C(NOC[C@H](O)CO)c1ccc(F)c(F)c1Nc1ccc(I)cc1F`, the % of control in [2] and in experiment [3] was 100% throughout.
In turn, `COc1cc(N(C)c2ccnc3ccc(C(F)(F)F)cc23)cc(OC)c1OC` displayed a % binding in [4] of 93%.
Regarding `CC[C@@H]1[C@H](F)C(=O)N[C@@H]1COc1nccc2cc(C(N)=O)c(OC)cc12` [ZIMLOVISERTIB], the % of inhibition in experiment [5] (at 0.01 µM) is 0.5%; in [5] (at 0.04 µM), -0.3%; in experiment [5] (at 0.2 µM), 7.5%; in [5] (at 1 µM), -3.5%; in experiment [5] (at 5 µM) it was -12.9%; in experiment [6], -7%.
`C=CC(=O)Nc1cc(-n2c(=O)ccc3cnc4ccc(-c5ccc(NS(C)(=O)=O)cc5)cc4c32)ccc1C`: the % of control in experiment [7] (at 1 µM) and in experiment [7] (at 10 µM) was 100% in each case.
With `O[C@H]1CC[C@H](Nc2ncc3nc(Nc4c(F)cc(F)cc4F)n([C@H]4CCOC4)c3n2)CC1`, the % of control came out at 100% in [8] and 11% in experiment [9].
